The source made the active and inactive calls. No cut-off for these calls is given here.
How the values were obtained:
[1] = tested on: HepG2; test: Cytotoxicity against human HepG2 cells assessed as cell viability incubated for 72 hrs by MTT assay; type: toxicity, cell-based; conditions: hepg2
[2] = tested on: Plasmodium yoelii; test: Antiplasmodial activity against asexual erythrocytic stage of Plasmodium yoelii infected in po dosed female CFI mouse model assessed as reduction in parasitemia administered once daily for 4 days and measured on day 5 by Giemsa staining based microscopic analysis; type: functional; conditions: 120 h, time 5 day
[3] = tested on: Plasmodium yoelii; test: Antiplasmodial activity against asexual erythrocytic stage of Plasmodium yoelii infected in female CFI mouse model assessed as reduction in parasitemia at 1 mg/kg, po administered once daily for 4 days and measured on day 5 by Giemsa staining based microscopic analysis relative to control; type: functional; design: scale not given: the % may be the effect or the level left; conditions: time 5 day
[4] = tested on: Plasmodium yoelii; test: Antiplasmodial activity against asexual erythrocytic stage of Plasmodium yoelii infected in female CFI mouse model assessed as reduction in parasitemia at 10 mg/kg, po administered once daily for 4 days and measured on day 5 by Giemsa staining based microscopic analysis relative to control; type: functional; design: scale not given: the % may be the effect or the level left; conditions: time 5 day
[5] = tested on: Plasmodium yoelii; test: Antiplasmodial activity against asexual erythrocytic stage of Plasmodium yoelii infected in female CFI mouse model at 25 mg/kg, po administered once daily for 4 days and measured on day 5 by Giemsa staining based microscopic analysis; type: functional, organism-based; conditions: time 5.0 day
[6] = tested on: Plasmodium berghei; test: Antimalarial activity against liver-stage Plasmodium berghei sporozoites ANKA expressing GFP infected in po dosed female Albino C57BL/6 mouse assessed as reduction in parasite load measured after 24 to 48 hrs by IVIS imaging analysis; type: functional, organism-based; conditions: dose 20-40 mg/kg, time 24-48 hrs
[7] = tested on: Plasmodium berghei; test: Antimalarial activity against blood-stage Plasmodium berghei sporozoites ANKA expressing GFP infected in po dosed female Albino C57BL/6 mouse assessed as reduction in parasite load measured after 72 hrs by flow cytometry analysis; type: functional, organism-based; conditions: dose 20-40 mg/kg
[8] = tested on: Plasmodium berghei; test: Antimalarial activity against liver-stage Plasmodium berghei sporozoites ANKA expressing GFP infected female Albino C57BL/6 mouse assessed as reduction in parasite growth at 40 mg/kg, po measured at 48 hrs by IVIS imaging analysis; type: functional; design: scale not given: the % may be the effect or the level left
[9] = tested on: Plasmodium berghei; test: Antimalarial activity against liver-stage Plasmodium berghei sporozoites ANKA expressing GFP infected female Albino C57BL/6 mouse assessed as reduction in parasite growth at 40 mg/kg, po measured at 72 hrs by IVIS imaging analysis; type: functional; design: scale not given: the % may be the effect or the level left
[10] = Metabolic stability in human liver microsomes assessed as half life measured upto 60 mins LC-MS analysis
[11] = Metabolic stability in mouse liver microsomes assessed as half life measured upto 60 mins LC-MS analysis
[12] = Metabolic stability in human liver microsomes assessed as intrinsic clearance measured upto 60 mins LC-MS analysis
[13] = Metabolic stability in mouse liver microsomes assessed as intrinsic clearance measured upto 60 mins LC-MS analysis
[14] = Aqueous solubility of compound in PBS buffer at pH 7.4 incubated for 90 mins by UV-vis spectroscopic analysis; conditions: pH 7.4, 1.5 h
[15] = Cmax in ICR-CD1 mouse liver at 40 mg/kg, po; type: ADME, organism-based
[16] = Cmax in ICR-CD1 mouse plasma at 40 mg/kg, po; type: ADME, organism-based
[17] = Tmax in ICR-CD1 mouse liver at 40 mg/kg, po; type: ADME, organism-based
[18] = Tmax in ICR-CD1 mouse plasma at 40 mg/kg, po; type: ADME, organism-based
[19] = Half life in ICR-CD1 mouse liver at 40 mg/kg, po; type: ADME, organism-based
[20] = Half life in ICR-CD1 mouse plasma at 40 mg/kg, po; type: ADME, organism-based
[21] = AUClast in ICR-CD1 mouse liver at 40 mg/kg, po; type: ADME, organism-based
[22] = AUClast in ICR-CD1 mouse plasma at 40 mg/kg, po; type: ADME, organism-based
[23] = %AUCextra in ICR-CD1 mouse liver at 40 mg/kg, po; type: ADME, organism-based; conditions: in vivo
[24] = %AUCextra in ICR-CD1 mouse plasma at 40 mg/kg, po; type: ADME, organism-based; conditions: in vivo
[25] = AUC (0 to infinity) in ICR-CD1 mouse liver at 40 mg/kg, po; type: ADME, organism-based
[26] = AUC (0 to infinity) in ICR-CD1 mouse plasma at 40 mg/kg, po; type: ADME, organism-based; conditions: in vivo
[27] = Apparent oral clearance in ICR-CD1 mouse liver at 40 mg/kg, po; type: ADME, organism-based
[28] = Apparent oral clearance in ICR-CD1 mouse plasma at 40 mg/kg, po; type: ADME, organism-based; conditions: in vivo
[29] = MRTlast in ICR-CD1 mouse liver at 40 mg/kg, po; type: ADME, organism-based
[30] = MRTlast in ICR-CD1 mouse plasma at 40 mg/kg, po; type: ADME, organism-based
[31] = Mutagenicity in Salmonella typhimurium TA98 at 10 uM in presence of S9 fraction incubated for 5 days by AMES assay; type: toxicity, subcellular; conditions: salmonella enterica subsp. enterica serovar typhimurium, s9, 120 h, time 5 day
[32] = Mutagenicity in Salmonella typhimurium TA98 at 10 uM in absence of S9 fraction incubated for 5 days by AMES assay; type: toxicity; conditions: salmonella enterica subsp. enterica serovar typhimurium, s9, 120 h, time 5 day
[33] = Mutagenicity in Salmonella typhimurium TA100 at 10 uM in presence of S9 fraction incubated for 5 days by AMES assay; type: toxicity, subcellular; conditions: salmonella enterica subsp. enterica serovar typhimurium, s9, 120 h, time 5 day
[34] = Mutagenicity in Salmonella typhimurium TA100 at 10 uM in absence of S9 fraction incubated for 5 days by AMES assay; type: toxicity; conditions: salmonella enterica subsp. enterica serovar typhimurium, s9, 120 h, time 5 day
[35] = target: T1, Voltage-gated inwardly rectifying potassium channel KCNH2 (Homo sapiens, UniProt Q12809); test: Inhibition of hERG expressed in CHO-K1 cells at 0.313 uM relative to control; type: toxicity, cell-based; conditions: cho-k1, 0.313 µM
[36] = target: T1, Voltage-gated inwardly rectifying potassium channel KCNH2; test: Inhibition of hERG expressed in CHO-K1 cells at 0.625 uM relative to control; type: toxicity, cell-based; conditions: cho-k1, 0.625 µM
[37] = target: T1, Voltage-gated inwardly rectifying potassium channel KCNH2; test: Inhibition of hERG expressed in CHO-K1 cells at 1.25 uM relative to control; type: toxicity, cell-based; conditions: cho-k1, 1.25 µM
[38] = target: T1, Voltage-gated inwardly rectifying potassium channel KCNH2; test: Inhibition of hERG expressed in CHO-K1 cells at 2.5 uM relative to control; type: toxicity, cell-based; conditions: cho-k1, 2.5 µM
[39] = target: T1, Voltage-gated inwardly rectifying potassium channel KCNH2; test: Inhibition of hERG expressed in CHO-K1 cells at 5 uM relative to control; type: toxicity, cell-based; conditions: cho-k1, 5 µM
[40] = target: T1, Voltage-gated inwardly rectifying potassium channel KCNH2; test: Inhibition of hERG expressed in CHO-K1 cells at 10 uM relative to control; type: toxicity, cell-based; conditions: cho-k1, 10 µM
[41] = in vitro; conditions: human
Description: Selectivity index, ratio of IC50 for cytotoxicity against human HepG2 cells assessed as cell viability to IC50 for antiplasmodial activity against asexual erythrocytic stage of Plasmodium falciparum D6 assessed as inhibition of parasitic growth incubated

[42] = tested on: Plasmodium falciparum; test: microbe, parasite or virus in culture; conditions: D6, 72 h
[43] = tested on: Plasmodium falciparum; test: microbe, parasite or virus in culture; conditions: Dd2, 72 h
[44] = tested on: Plasmodium falciparum; test: microbe, parasite or virus in culture; conditions: Tm90-C2B, 72 h

T1 sequence (Q12809 whole entry): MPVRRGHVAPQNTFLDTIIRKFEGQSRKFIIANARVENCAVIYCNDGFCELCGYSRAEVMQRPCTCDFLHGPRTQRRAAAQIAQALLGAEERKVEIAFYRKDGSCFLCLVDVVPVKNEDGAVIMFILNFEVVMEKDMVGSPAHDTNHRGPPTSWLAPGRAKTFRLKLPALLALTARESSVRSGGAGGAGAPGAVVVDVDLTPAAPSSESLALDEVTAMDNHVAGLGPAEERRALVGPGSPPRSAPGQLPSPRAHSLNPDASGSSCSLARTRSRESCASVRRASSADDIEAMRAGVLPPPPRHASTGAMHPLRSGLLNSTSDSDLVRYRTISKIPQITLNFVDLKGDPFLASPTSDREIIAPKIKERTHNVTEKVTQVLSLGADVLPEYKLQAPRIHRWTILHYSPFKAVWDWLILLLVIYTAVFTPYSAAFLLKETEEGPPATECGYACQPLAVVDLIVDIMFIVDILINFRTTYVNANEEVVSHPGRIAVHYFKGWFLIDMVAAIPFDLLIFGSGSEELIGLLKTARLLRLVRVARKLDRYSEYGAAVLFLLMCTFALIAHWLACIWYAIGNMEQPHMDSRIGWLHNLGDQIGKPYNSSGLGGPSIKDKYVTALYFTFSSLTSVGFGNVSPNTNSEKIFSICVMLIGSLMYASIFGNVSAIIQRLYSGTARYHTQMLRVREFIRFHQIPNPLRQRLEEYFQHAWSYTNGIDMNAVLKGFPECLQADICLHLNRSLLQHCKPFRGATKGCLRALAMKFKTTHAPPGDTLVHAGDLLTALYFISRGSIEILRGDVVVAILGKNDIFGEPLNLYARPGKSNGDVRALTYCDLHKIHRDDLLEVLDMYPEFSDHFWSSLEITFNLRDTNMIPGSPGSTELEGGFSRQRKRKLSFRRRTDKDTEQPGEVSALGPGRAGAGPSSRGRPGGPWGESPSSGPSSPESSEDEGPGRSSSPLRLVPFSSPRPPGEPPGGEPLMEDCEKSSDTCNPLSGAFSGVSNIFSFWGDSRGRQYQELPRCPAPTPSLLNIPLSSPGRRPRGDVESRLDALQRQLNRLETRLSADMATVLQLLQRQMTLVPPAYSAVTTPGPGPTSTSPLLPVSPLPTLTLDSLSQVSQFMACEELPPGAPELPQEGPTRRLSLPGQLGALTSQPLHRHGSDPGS

CCCCCc1cc(/C=C2\N=C(c3ccc[nH]3)C=C2Oc2ccccc2)[nH]c1C.Cl
IC50 [1]: 6260 nM
ED50 ([2]; Plasmodium yoelii, po, read-out: ED50): 0.99 mg/kg/day
ED50 [2]: 1.11 mg/kg/day
Activity [3]: 54.6%
Activity [4]: 100%
Activity [5]: Active
Activity [6]: Dose-dependent-effect
Activity [7]: Dose-dependent-effect
Activity [8]: 43%
Activity [9]: 74%
half-life at 1 h [10]: > 1 h
half-life at 1 h [11]: 0.915 h
microsomal CLint at 1 h [12]: 4.02 µL/min/mg
microsomal CLint at 1 h [13]: 25.2 µL/min/mg
solubility [14]: < 3.125 µM
Cmax [15]: 1130 ng/mL
Cmax [16]: 199 ng/mL
Tmax [17]: 24 h
Tmax [18]: 30 h
half-life [19]: 5.03 h
half-life [20]: 6.41 h
AUC(0-t) [21]: 31900 ng·h/mL
AUC(0-t) [22]: 5950 ng·h/mL
%AUCextra [23]: 0.267%
%AUCextra [24]: 0.426%
AUC(0-inf) [25]: 32000 ng·h/mL
AUC [26]: 5974 ng·h/mL
CL/F [27]: 0.615 mL/min/kg
CL/F [28]: 3.32 mL/min/kg
MRT last [29]: 29.1 h
MRT last [30]: 28.3 h
Activity [31]: Non-toxic
Activity [32]: Non-toxic
Activity [33]: Non-toxic
Activity [34]: Non-toxic
inhibition (INH) [35]: 0.24%
inhibition (INH) [36]: 7.31%
inhibition (INH) [37]: 9.85%
inhibition (INH) [38]: 10.3%
inhibition (INH) [39]: 10.3%
inhibition (INH) [40]: 17.5%
selectivity ratio [41]: 884
IC50 [42]: 7.08 nM
IC50 [43]: 3.87 nM
IC50 [44]: 8.74 nM
